Experimental findings from ChEMBL document CHEMBL1126451, “Characterization of LY806303 as a potent and selective inhibitor of thrombin” (Bioorg Med Chem Lett, 1992) are described below.

Broadly, the pIC50 is the negative decadic logarithm of the IC50, by convention in mol/L.

One assay deals with Prothrombin (Bos taurus, UniProt P00735).
In assay [1] the target is T1, Plasminogen (Homo sapiens, UniProt P00747). Description: In vitro concentration of compound required to inhibit 50% of plasmin.
In the next assay the target is T2, Serine protease 1 (Bos taurus, UniProt P00760).
T2 sequence (P00760 whole entry): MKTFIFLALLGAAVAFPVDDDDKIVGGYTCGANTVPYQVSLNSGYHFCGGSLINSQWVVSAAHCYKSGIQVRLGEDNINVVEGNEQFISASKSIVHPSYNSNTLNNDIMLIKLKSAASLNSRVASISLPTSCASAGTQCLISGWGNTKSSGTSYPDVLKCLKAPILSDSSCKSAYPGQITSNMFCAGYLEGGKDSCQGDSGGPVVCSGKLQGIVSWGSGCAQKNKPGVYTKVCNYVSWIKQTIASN
In words: In vitro concentration of compound required to inhibit 50% of trypsin.

In assay [2] the target is T3, Plasma kallikrein (Homo sapiens, UniProt P03952). In words: In vitro concentration of compound required to inhibit 50% of kallikrein.
Assay [3] can be described thus: In vitro concentration of compound required to inhibit 50% of nt-PA. The arrangement: species or system Homo sapiens.
Assay [4] deals with T4, Coagulation factor X (Bos taurus, UniProt P00743). Description: In vitro concentration of compound required to inhibit 50% of factor Xa.
Assay [5] has as its target T4, Coagulation factor X. In words: In vitro concentration of compound required to inhibit 50% of Factor Xa.
Assay [6] concerns the target T3, Plasma kallikrein. Description: In vitro concentration of compound required to inhibit 50% of Kallikrein.
The target of assay [7] is T1, Plasminogen. In words: In vitro concentration of compound required to inhibit 50% of Plasmin.

pIC50: −log10 of the molar value. Non-standard residues stand in square brackets, D forms with d. Residues, ends and D or L forms follow the SMILES beside them. dNMePhg = CN[C@@H](C(=O)O)c1ccccc1; NMePhg = CN[C@H](C(=O)O)c1ccccc1 Where only a bound is given, the exact number is not on record here.

T4 sequence (P00743 41-180 limits assumed): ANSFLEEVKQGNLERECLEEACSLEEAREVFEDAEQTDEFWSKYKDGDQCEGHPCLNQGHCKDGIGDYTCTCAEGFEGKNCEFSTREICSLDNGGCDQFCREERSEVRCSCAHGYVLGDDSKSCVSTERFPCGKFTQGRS
T4 sequence (P00743 234-492 limits assumed): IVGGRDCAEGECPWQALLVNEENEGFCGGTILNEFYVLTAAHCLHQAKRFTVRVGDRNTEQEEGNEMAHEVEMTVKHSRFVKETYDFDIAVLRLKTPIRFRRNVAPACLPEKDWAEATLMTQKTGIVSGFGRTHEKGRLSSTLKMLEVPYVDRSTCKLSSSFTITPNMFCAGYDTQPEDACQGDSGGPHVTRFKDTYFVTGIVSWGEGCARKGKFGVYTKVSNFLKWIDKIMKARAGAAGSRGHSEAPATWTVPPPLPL
T1 sequence (P00747 97-580 limits assumed): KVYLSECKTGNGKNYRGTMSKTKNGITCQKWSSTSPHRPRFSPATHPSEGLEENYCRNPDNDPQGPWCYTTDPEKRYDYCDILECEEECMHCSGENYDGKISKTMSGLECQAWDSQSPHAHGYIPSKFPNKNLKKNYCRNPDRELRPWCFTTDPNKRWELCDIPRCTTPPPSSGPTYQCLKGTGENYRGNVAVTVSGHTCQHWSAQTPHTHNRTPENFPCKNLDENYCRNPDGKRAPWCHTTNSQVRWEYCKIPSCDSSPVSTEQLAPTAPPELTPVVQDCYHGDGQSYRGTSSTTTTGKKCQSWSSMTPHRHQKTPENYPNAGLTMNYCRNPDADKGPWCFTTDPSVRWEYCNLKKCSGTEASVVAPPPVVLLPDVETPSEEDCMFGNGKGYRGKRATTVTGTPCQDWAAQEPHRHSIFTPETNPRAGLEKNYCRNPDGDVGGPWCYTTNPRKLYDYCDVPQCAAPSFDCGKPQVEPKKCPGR
T1 sequence (P00747 581-810 limits assumed): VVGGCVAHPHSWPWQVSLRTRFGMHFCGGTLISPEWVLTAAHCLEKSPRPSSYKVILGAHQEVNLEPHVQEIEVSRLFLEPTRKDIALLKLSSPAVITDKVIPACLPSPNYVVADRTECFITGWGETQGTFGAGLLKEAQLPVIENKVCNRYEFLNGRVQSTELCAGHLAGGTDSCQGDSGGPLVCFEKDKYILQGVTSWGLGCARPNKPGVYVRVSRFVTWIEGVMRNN
T3 sequence (P03952 20-390 limits assumed): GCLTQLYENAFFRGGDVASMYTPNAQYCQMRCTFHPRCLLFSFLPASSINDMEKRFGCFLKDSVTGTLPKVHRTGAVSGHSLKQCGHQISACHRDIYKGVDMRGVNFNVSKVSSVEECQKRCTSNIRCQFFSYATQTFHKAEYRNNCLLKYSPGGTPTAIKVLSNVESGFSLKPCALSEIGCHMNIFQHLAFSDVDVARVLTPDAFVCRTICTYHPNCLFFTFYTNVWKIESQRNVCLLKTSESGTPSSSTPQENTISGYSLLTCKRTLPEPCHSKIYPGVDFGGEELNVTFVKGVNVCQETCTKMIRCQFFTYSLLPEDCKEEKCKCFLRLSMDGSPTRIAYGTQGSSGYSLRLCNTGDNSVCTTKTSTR
T3 sequence (P03952 391-638 limits assumed): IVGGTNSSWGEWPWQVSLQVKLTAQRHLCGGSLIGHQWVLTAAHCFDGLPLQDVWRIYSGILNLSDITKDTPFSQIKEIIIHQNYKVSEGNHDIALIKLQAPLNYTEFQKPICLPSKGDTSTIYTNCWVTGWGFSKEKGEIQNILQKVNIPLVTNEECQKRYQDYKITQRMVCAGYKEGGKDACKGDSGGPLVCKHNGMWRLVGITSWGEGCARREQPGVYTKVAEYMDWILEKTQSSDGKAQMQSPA
Description for Prothrombin: In vitro concentration of compound required to inhibit 50% of 6 nM thrombin

`CN[C@H](C(=O)N1CCC[C@H]1C(=O)N[C@@H](CCCNC(=N)N)C(=O)O)c1ccccc1` (H-[NMePhg]-Pro-Arg-OH): the pIC50 against Prothrombin is 7.70.
Turning to `CN[C@@H](C(=O)N1CCC[C@H]1C(=O)N[C@H](C=O)CCCNC(=N)N)c1ccccc1` (H-[dNMePhg]-Pro-Arg-aldehyde), the pIC50 at Plasminogen [1] was 6.30; on Serine protease 1 it was 7.70; against Plasma kallikrein [2], 4.92; in assay [3] it was 4.37; on Coagulation factor X [4] it was 5.66.
`COC(=O)c1oc2c(sc3ccccc32)c1O`: the pIC50 on Prothrombin was under 5.00.
Still for that read-out and setting: the value for `COC(=O)c1oc2c(sc3ccccc32)c1OC(=O)N(C)C` was under 5.00; that for `COC(=O)c1oc2c(sc3ccccc32)c1OC` was under 5.00.
As for `COC(=O)c1oc2c(sc3ccccc32)c1OC(=O)C(C)C`, the pIC50 is 7.00 on Coagulation factor X [5]; 5.14 at Plasma kallikrein [6]; 4.54 at Serine protease 1; 3.80 in [3]; 3.62 on Plasminogen [7].
